Legend:
IL-6 = experiment: Mouse IL6 Quantification Assay (LPS-stimulated RAW 264.7); type: cell-based; parameters: dose or concentration left out as unconfirmed; conditions: RAW264.7, ELISA, read-out: IL-6: % inh.
TNFα = experiment: Mouse TNF Alpha Quantification Assay (LPS-stimulated RAW 264.7); type: cell-based; parameters: dose or concentration left out as unconfirmed; conditions: RAW264.7, ELISA, read-out: TNFα: % inh.
KRas wild type = experiment: Ras GTP Binding Domain Inhibition Assay, KRas wild type; conditions: at 20 μM; for KRas wild type + SOS: % inh.: with SOS; for KRas wild type: % inh.: without SOS
Experimental: (§1) A Ras Superfamily Activity Assay (as disclosed in International Application No. PCT/US2018/038613, filed Jun. 20, 2018, which is incorporated by reference in its entirety) was used as a specific assay to evaluate compounds against the following for the following Ras Superfamily proteins: KRas wild type, KRas Q61H mutant, KRas G12C mutant, KRas G12D mutant, Rac-1, and Rho-A.
(§2) Buffer-I: • 25 mM Tris-HCl, pH 7.4 • 27 mM KCl • 137 mM NaCl • 1 mM MgCl2 • 1 mM DTT
(§3) Buffer-IL: • 50 mM Tris-HCl, pH 7.0 • 1 mM MgCl2 • 1 mM DTT
(§4) The small GTPases proteins: KRas wild type. KRas Q61H mutant, KRas G12C mutant, KRas G12D mutants, Rac-1, and Rho-A were expressed as His-tagged proteins. In addition, the Guanosine nucleotide Exchange Factor (GEF) Sos protein (residues 556-1049) was expressed as a His-tagged protein. In cells, the guanine nucleotide exchange factor Sos protein promotes activation of Ras proteins by stimulating an exchange of GDP for GTP. The inclusion of Sos to the Ras GTP binding domain inhibition assay may be considered as an alternative representation of physiological cellular conditions for evaluating the inhibitory activity of some of the tested small molecules.
(§5) For the assay, all purified small GTPases proteins were diluted in Buffer-I or Buffer-II to a final concentration of 10-30 μg/mL. 200 μL of each diluted protein was added to a nickel-coated 96-well plate and incubated overnight at 4° C. Then the protein solution was discarded and 200 μL of Buffer-I or Buffer-II was added to each well in the presence of 1% DMSO. Compounds to be tested were added to the protein-coated wells at final concentration of 20 μM, and incubated for 3 hours at room temperature with and without 10-30 μg/mL of Sos added to the final hour of the incubation. When performing IC50 measurements a serial dilution of all tested concentrations was added. Then Cy3-GTP or Cy5-GTP was added to each well to a final concentration of 100 nM. The labeled GTP was incubated for 45 minutes at room temperature. Following GTP incubation, wells were washed 3× in Buffer-I or Buffer-II and 200 μL of Buffer-I or Buffer-II was added to each well. Following washes, the amount of bound labeled-GTP was measured using a SpectraMax M3 (Molecular Devices).

KRas G12D mutant = experiment: Ras GTP Binding Domain Inhibition Assay, KRas G12D mutant; conditions: at 20 μM; for KRas G12D mutant + SOS: % inh.: with SOS; for KRas G12D mutant: % inh.: without SOS
Experimental: as §1, §2, §3, §4, §5

KRas G12C mutant = experiment: Ras GTP Binding Domain Inhibition Assay, KRas G12C mutant; conditions: at 20 μM; for KRas G12C mutant + SOS: % inh.: with SOS; for KRas G12C mutant: % inh.: without SOS
Experimental: as §1, §2, §3, §4, §5

Rho-A = experiment: Ras GTP Binding Domain Inhibition Assay, Rho-A; conditions: at 20 μM; without SOS
Experimental: as §1, §2, §3, §4, §5

Row | Structure (SMILES) | inhibition (IL-6) [%] | inhibition (TNFα) [%] | KRas wild type + SOS: % inh. (KRas wild type) | KRas wild type: % inh. (KRas wild type) | KRas G12D mutant + SOS: % inh. (KRas G12D mutant; Table 7) | KRas G12D mutant + SOS: % inh. (KRas G12D mutant; Table 8) | KRas G12D mutant: % inh. (KRas G12D mutant; Table 7) | KRas G12D mutant: % inh. (KRas G12D mutant; Table 8) | KRas G12C mutant + SOS: % inh. (KRas G12C mutant) | KRas G12C mutant: % inh. (KRas G12C mutant) | Rho-A: % inh. (Rho-A)
1 | CO[C@H]1CNC[C@@H](Nc2nc(-c3nccn3C)nc3sc(-c4ccn(C(C)C)n4)cc23)C1 [Compound 28, 6-(1-Isopropyl-1H-pyrazol-3-yl)-N-((3S,5R)-5-methoxypiperidin-3-yl)-2-(1-methyl-1H-imidazol-2-yl)thieno[2,3-d]pyrimidin-4-amine] | 76 to 100 | 46 to 75 |  |  |  |  |  |  |  |  | 
2 | COc1cccc(-c2sc3nc(-c4nccn4C)nc(N[C@@H]4CC[C@@H](OC)C4)c3c2C)c1F (racemic) [Compound 43, rac-6-(2-Fluoro-3-methoxyphenyl)-N-((1R,3R)-3-methoxycyclopentyl)-5-methyl-2-(1-methyl-1H-imidazol-2-yl)thieno[2,3-d]pyrimidin-4-amine] | 76 to 100 | 26 to 45 | D (D = 76-100% inhibition) | B (B = 26-45% inhibition) | D (D = 76-100% inhibition) | D (D = 76-100% inhibition) | A (A = 1-25% inhibition) | A (A = 1-25% inhibition) | D (D = 76-100% inhibition) | B (B = 26-45% inhibition) | B (B = 26-45% inhibition)
3 | COc1cccc(-c2sc3nc(-c4nccn4C)nc(N[C@H]4C[C@H](OC)C4)c3c2C)c1F [Compound 42, 6-(2-Fluoro-3-methoxyphenyl)-N-((1r,3r)-3-methoxycyclobutyl)-5-methyl-2-(1-methyl-1H-imidazol-2-yl)thieno[2,3-d]pyrimidin-4-amine] | 46 to 75 | 0 | D (D = 76-100% inhibition) | D (D = 76-100% inhibition) | D (D = 76-100% inhibition) | D (D = 76-100% inhibition) | B (B = 26-45% inhibition) | B (B = 26-45% inhibition) | D (D = 76-100% inhibition) | C (C = 46-75% inhibition) | C (C = 46-75% inhibition)
4 | COCCn1ccc(-c2sc3nc(-c4nccn4C)nc(N[C@@H]4CC[C@H](OC)C4)c3c2C)n1 (racemic) [Compound 39, rac-N-((1R,3S)-3-Methoxycyclopentyl)-6-(1-(2-methoxyethyl)-1H-pyrazol-3-yl)-5-methyl-2-(1-methyl-1H-imidazol-2-yl)thieno[2,3-d]pyrimidin-4-amine] | 26 to 45 | 0 | D (D = 76-100% inhibition) | D (D = 76-100% inhibition) | D (D = 76-100% inhibition) | D (D = 76-100% inhibition) | C (C = 46-75% inhibition) | C (C = 46-75% inhibition) | D (D = 76-100% inhibition) | D (D = 76-100% inhibition) | C (C = 46-75% inhibition)
5 | COCC1CN(c2nc(-c3nccn3C)nc3sc(-c4ccn(C(C)C)n4)c(C)c23)CCO1 (racemic) [Compound 15, rac-4-(6-(1-Isopropyl-1H-pyrazol-3-yl)-5-methyl-2-(1-methyl-1H-imidazol-2-yl)thieno[2,3-d]pyrimidin-4-yl)-2-(methoxymethyl)morpholine] | 46 to 75 | 76 to 100 | D (D = 76-100% inhibition) | D (D = 76-100% inhibition) | D (D = 76-100% inhibition) | D (D = 76-100% inhibition) | D (D = 76-100% inhibition) | D (D = 76-100% inhibition) | D (D = 76-100% inhibition) | C (C = 46-75% inhibition) | D (D = 76-100% inhibition)
6 | COc1cccc(Nc2nc(-c3nccn3C)nc3sc(-c4ccn(C(C)C)n4)c(C)c23)n1 [Compound 18, 6-(1-Isopropyl-1H-pyrazol-3-yl)-N-(6-methoxypyridin-2-yl)-5-methyl-2-(1-methyl-1H-imidazol-2-yl)thieno[2,3-d]pyrimidin-4-amine] | 26 to 45 | 0 | C (C = 46-75% inhibition) | C (C = 46-75% inhibition) | C (C = 46-75% inhibition) | C (C = 46-75% inhibition) | D (D = 76-100% inhibition) | D (D = 76-100% inhibition) | C (C = 46-75% inhibition) | C (C = 46-75% inhibition) | D (D = 76-100% inhibition)
7 | COCC1(OC)CCN(c2nc(-c3nccn3C)nc3sc(-c4ccn(C(C)C)n4)c(C)c23)C1 (racemic) [Compound 27, rac-6-(1-Isopropyl-1H-pyrazol-3-yl)-4-(3-methoxy-3-(methoxymethyl)pyrrolidin-1-yl)-5-methyl-2-(1-methyl-1H-imidazol-2-yl)thieno[2,3-d]pyrimidine] | 76 to 100 | 76 to 100 | D (D = 76-100% inhibition) | D (D = 76-100% inhibition) | D (D = 76-100% inhibition) | D (D = 76-100% inhibition) | C (C = 46-75% inhibition) | C (C = 46-75% inhibition) | D (D = 76-100% inhibition) | D (D = 76-100% inhibition) | C (C = 46-75% inhibition)
8 | CO[C@H]1C[C@H](CNc2nc(-c3nccn3C)nc3sc(-c4ccn(C(C)C)n4)c(C)c23)C1 [Compound 16, 6-(1-Isopropyl-1H-pyrazol-3-yl)-N-(((1r,3r)-3-methoxycyclobutyl)methyl)-5-methyl-2-(1-methyl-1H-imidazol-2-yl)thieno[2,3-d]pyrimidin-4-amine] | 46 to 75 | 1 to 25 | C (C = 46-75% inhibition) | D (D = 76-100% inhibition) | C (C = 46-75% inhibition) | C (C = 46-75% inhibition) | B (B = 26-45% inhibition) | B (B = 26-45% inhibition) | C (C = 46-75% inhibition) | C (C = 46-75% inhibition) | C (C = 46-75% inhibition)
9 | COCCO[C@H]1CC[C@@H](Nc2nc(-c3nccn3C)nc3sc(-c4ccn(C(C)C)n4)c(C)c23)C1 (racemic) [Compound 20, rac-6-(1-Isopropyl-1H-pyrazol-3-yl)-N-((1R,3S)-3-(2-methoxyethoxy)cyclopentyl)-5-methyl-2-(1-methyl-1H-imidazol-2-yl)thieno[2,3-d]pyrimidin-4-amine] | 76 to 100 | 46 to 75 | D (D = 76-100% inhibition) | D (D = 76-100% inhibition) | D (D = 76-100% inhibition) | D (D = 76-100% inhibition) | D (D = 76-100% inhibition) | D (D = 76-100% inhibition) | D (D = 76-100% inhibition) | D (D = 76-100% inhibition) | C (C = 46-75% inhibition)

From patent US20240309015A1, “Methods for the Treatment of Fibrotic Disease” (SHY Therapeutics, LLC, priority 2021, published 2024)
